In patent publication US7122549B2, “Saframycins, analogues and uses thereof” (President and Fellows of Harvard College, priority 2000, dated 2006):
Where two headings read alike, the source gives them in different places.

Legend:
A-549 lung carcinoma = assay: Cell Growth Inhibition Assay (MTS, CellTiter 96 AQueous); assay type: cell-based
Procedure: (§1) The two cell lines used, A375 malignant melanoma and A-549 lung carcinoma, were purchased from American Type Culture Collection. These cells were cultured at 37° C. in a humidified atmosphere of 5% CO2 in Dulbecco's Modified Eagle Medium (DMEM) supplemented with 10% fetal bovine serum (FBS), 0.1% glutamine and 0.1% penicillin-streptomycin. DMEM, FBS, glutamine and penicillin-streptomycin were purchased from Life Technologies (Grand Island, N.Y.).
(§2) Exponentially growing cells were seeded at ˜3000 (50 μl) cells per well in 96-well flat-bottomed microtiter plates and then incubated at 37° C. in a humidified atmosphere of 5% CO2/95% air for 24 hr. An analogue was dissolved in dimethyl sulfoxide to give a concentration of 0.6 mg/ml, which was further diluted with the culture medium containing 10% fetal bovine serum. Nine three-fold dilutions were prepared with the maximum concentration being 1/300 of the original DMSO solution (i.e. 2000 ng/ml). This procedure was repeated for each analogue. Fifty microliters of the obtained dilutions were each transferred into the well of the above described culture plate. The cell culture was then placed back into the incubator at 37° C. under the 5% CO2 atmosphere for 72 hr. Cell proliferation was quantified by using the CellTiter 96 AQueous Assay (Promega). In this assay a mixture solution (20 μl) of MTS [Owen's reagent: 3-(4,5-dimethylthiazol-2-yl)-5-(3-carbomethoxyphenyl)-2-(4-sulfophenyl)-2H-tetrazolium inner salt] and phenazine methosulfate (PMS) was added to each well. The resulting mixtures were further incubated for 2.5 hr. The absorbance was measured with a microplate reader at a test wavelength of 540 nm and a reference wavelength of 655 nm to serve as an index of the number of viable cells. The inhibitory ratio of the test compound was calculated according to the following formula: inhibition ratio (%)=100×(C−T)/C, where T is an absorbance of the well containing a test compound and C is an absorbance of the well containing no test compound. The IC50 was calculated by the least squares method.

A375 malignant melanoma = assay: as above; assay type: cell-based
Procedure: as §1, §2

[1] = Homo sapiens, Table 1, A549 cells, 72 hr with compound, MTS readout, read-out: IC50, nM A549
[2] = Homo sapiens, A-375, Table 1, A375 cells, 72 hr with compound, MTS readout, read-out: IC50, nM A375
[3] = Homo sapiens, Table 3, A549 cells, 72 hr with compound, MTS readout, read-out: IC50 (nM) Cell line A549-Lung
[4] = Homo sapiens, A-375, Table 3, A375 cells, 72 hr with compound, MTS readout, read-out: IC50 (nM) Cell line A375-Melanoma
[5] = Homo sapiens, A549, 72 h, read-out: IC50, nM A549
[6] = Homo sapiens, A-375, 72 h, read-out: IC50, nM A375
[7] = Homo sapiens, Table 2, A549 cells, 72 hr with compound, MTS readout, read-out: IC50 (nM) Cell line A549-Lung
[8] = Homo sapiens, A-375, Table 2, A375 cells, 72 hr with compound, MTS readout, read-out: IC50 (nM) Cell line A375-Melanoma

Structure (SMILES)	IC50 (A-549 lung carcinoma; [1]) [nM]	IC50 (A375 malignant melanoma; [2]) [nM]	other results
NC(=O)c1c[nH]c2ccccc12	1200	76	
NC(=O)c1cnccn1	100	4.4	
COc1c(C)c(OC)c2c(c1O)[C@@H]1[C@@H]3Cc4c(OC)c(C)c(OC)c(O)c4[C@H](CNC(=O)c4ccc5ccccc5n4)N3[C@@H](OC)[C@H](C2)N1C [drawing 172 X = OCH3, Methoxy derivative]			IC50 (A-549 lung carcinoma; [3]): 1100 nM; IC50 (A375 malignant melanoma; [4]): 120 nM
COc1cccc(C(N)=O)c1	99	4.1	
O=C1NC(=O)c2ccccc21	9.2	1.7	
NC(=O)c1cc(O)c2ccc(Cl)cc2n1	42	7.5	
NC(=O)c1cccc2ccccc12	390	43	
COc1c(C)c(OC)c2c(c1O)[C@@H]1[C@@H]3Cc4c(OC)c(C)c(OC)c(O)c4[C@H](CNC(=O)c4ccccc4)N3[C@@H](C#N)[C@H](C2)N1C [drawing 136 R = H, Benzamide derivative]	91	4.1	
NC(=O)c1c(O)ccc2ccccc12	320	23	
NC(=O)c1ccco1	290	13	
NC(=O)c1ccccn1	40	3.3	
COc1c(C)c(OC)c2c(c1O)[C@@H]1[C@@H]3Cc4c(OC)c(C)c(OC)c(O)c4[C@H](CNC(=O)c4ccc5ccccc5n4)N3C[C@H](C2)N1C [drawing 172 X = H, Reduced quinalascidin analog]			IC50 (A-549 lung carcinoma; [3]): > 9000 nM; IC50 (A375 malignant melanoma; [4]): > 9000 nM
COc1c(C)c(OC)c2c(c1O)[C@@H]1[C@@H]3Cc4c(OC)c(C)c(OC)c(O)c4[C@H](CNC(=O)c4ccccc4F)N3[C@@H](C#N)[C@H](C2)N1C [drawing 136 R = F, 2-Fluorobenzamide derivative]	37	2.5	
NC(=O)Nc1ccccc1	890	37	
COc1ccc(OC(N)=O)cc1			IC50 (A-549 lung carcinoma; [5]): 96 nM; IC50 (A375 malignant melanoma; [6]): 3.4 nM
NC(=O)c1c(F)cccc1F	395	12	
NC(=O)C1NCCc2ccccc21 (stereo not shown)		3440	
NC(=O)C(=O)Cc1ccccc1	39	2.4	
NC(=O)OCc1ccccc1			IC50 (A-549 lung carcinoma; [5]): 50 nM; IC50 (A375 malignant melanoma; [6]): 3.9 nM
CC(=O)C(N)=O	160	4.5	
COc1c(C)c(OC)c2c(c1O)[C@@H]1[C@@H]3Cc4c(OC)c(C)c(OC)c(O)c4[C@H](CNC(=O)OCC4c5ccccc5-c5ccccc54)N3[C@@H](C#N)C(C2)N1C			IC50 (A-549 lung carcinoma; [7]): 176 nM; IC50 (A375 malignant melanoma; [8]): 35 nM
NC(=O)c1cc2cc(F)ccc2[nH]1	26	2.5	
NC(=O)/C=C/c1ccccc1	44	2.9	
COc1c(C)c(OC)c2c(c1O)[C@@H]1[C@@H]3Cc4c(OC)c(C)c(OC)c(O)c4[C@H](CNC(=O)c4ccccc4-c4ccccc4)N3[C@@H](C#N)[C@H](C2)N1C [drawing 136 R = Phenyl, Biphenyl-2-carboxylic acid amide derivative]	330	34	
COc1c(C)c(OC)c2c(c1O)[C@@H]1[C@@H]3Cc4c(OC)c(C)c(OC)c(O)c4[C@H](CNC(=O)c4ccc5cc(Cl)ccc5n4)N3[C@@H](C#N)[C@H](C2)N1C [drawing 162 R = Cl (14), 6-Chloroquinoline-2-carboxylic acid amide derivative]	4.1	1.5	
NC(=O)c1cc(O)c2cc(Cl)ccc2n1	74	13	

Structure (SMILES)	IC50 (A-549 lung carcinoma; [1]) [nM]	IC50 (A375 malignant melanoma; [2]) [nM]	other results
Cc1ccc2ccc(C(N)=O)nc2c1	4.6	1.4	
NC(=O)c1c(F)c(F)c(F)c(F)c1F	100	8.5	
Cc1ccc(S(N)(=O)=O)cc1	860	81	
NCc1ccccc1	1100	330	
COc1c(C)c(OC)c2c(c1O)[C@@H]1[C@@H]3Cc4c(OC)c(C)c(OC)c(O)c4[C@H](CNC(=O)c4ccc5ccccc5n4)N3[C@@H](C#N)[C@H](C2)N1C [drawing 160 R = H (11), Quinoline-2-carboxylic acid amide derivative]	4.4	1.3	
Cc1ccc(C(N)=O)c(O)c1	6.5	1.2	
COc1c(C)c(OC)c2c(c1O)[C@@H]1[C@@H]3Cc4c(OC)c(C)c(OC)c(O)c4[C@H](CNC(=O)c4ccc5cc(OCCCCNC(=O)CCCCCNC(=O)CCCCCNC(=O)CCCC[C@@H]6SC[C@@H]7NC(=O)N[C@@H]76)ccc5n4)N3[C@@H](C#N)[C@H](C2)N1C [Biotinylated derivative, Biotinylated Quinalascidin Analog 1]			IC50 (A-549 lung carcinoma; Homo sapiens, A549, 72 h, read-out: IC50 (nM) Cell line A549-Lung): 990 nM; IC50 (A375 malignant melanoma; Homo sapiens, A-375, 72 h, read-out: IC50 (nM) Cell line A375-Melanoma): 210 nM
NC(=O)c1ncccc1O	11.3	1.2	
NC(=O)C(=O)c1c[nH]c2ccccc12			IC50 (A-549 lung carcinoma; [5]): 110 nM; IC50 (A375 malignant melanoma; [6]): 9.6 nM
NC(=O)c1cccc2[nH]ccc12	1100	85	
NC(=O)c1ncc(Br)c2ccccc12	25	9.2	
NC(=O)[C@@H]1Cc2ccccc2CN1	200	8.3	
NC(=O)Cc1ccccc1			IC50 (A-549 lung carcinoma; [5]): 1200 nM; IC50 (A375 malignant melanoma; [6]): 34 nM
COc1cc(C(N)=O)cc(OC)c1OC	390	14	
NC(=O)c1nccc2ccccc12	32	2.5	
COc1c(C)c(OC)c2c(c1O)[C@@H]1[C@@H]3Cc4c(OC)c(C)c(OC)c(O)c4[C@H](CNC(=O)c4ccc5cc(OCCCCN)ccc5n4)N3[C@@H](C#N)[C@H](C2)N1C			IC50 (A-549 lung carcinoma; [7]): 118 nM; IC50 (A375 malignant melanoma; [8]): 29 nM
O=C1NC(=O)c2ncccc21	> 510	> 510	
COc1c(C)c(OC)c2c(c1O)[C@@H]1[C@@H]3Cc4c(OC)c(C)c(OC)c(O)c4[C@H](CN(Cc4ccccn4)Cc4ccccn4)N3[C@@H](C#N)[C@H](C2)N1C [N-(Pyr)2, bis-2-Pyridyl Derivative]	> 1400	> 1400	
NCc1ccccn1	700	260	
COC1=C(C)C(=O)C2=C(C1=O)[C@@H]1[C@@H]3CC4=C(C(=O)C(OC)=C(C)C4=O)[C@H](CNC(=O)C(C)=O)N3[C@@H](C#N)[C@H](C2)N1C [Saframycin A, (−)-Saframycin A, reference compound]			IC50 (A-549 lung carcinoma; Table 1, A549 cells, 72 hr with compound, MTS readout, read-out: IC50, nM A549): 133 nM; IC50 (A375 malignant melanoma; Table 1, A375 cells, 72 hr with compound, MTS readout, read-out: IC50, nM A375): 5.3 nM
NC(=O)[C@@H](N)Cc1c[nH]c2ccccc12	> 1400	310	
NC(=O)c1cc2ccccc2[nH]1	31	2.7	
NC(=O)c1cnc2ccccc2n1	4.7	1.2	
COc1c(C)c(OC)c2c(c1O)[C@@H]1[C@@H]3Cc4c(OC)c(C)c(OC)c(O)c4[C@H](CNC(=O)c4ccc5ccccc5n4)N3[C@@H](O)[C@H](C2)N1C [drawing 172 X = OH, Hemiaminal derivative]			IC50 (A-549 lung carcinoma; [3]): 13 nM; IC50 (A375 malignant melanoma; [4]): 0.9 nM
CCCCC[C@H]1c2c(O)c(OC)c(C)c(OC)c2C[C@H]2[C@H]3c4c(O)c(OC)c(C)c(OC)c4C[C@@H]([C@H](C#N)N12)N3C			IC50 (A-549 lung carcinoma; [7]): 1400 nM; IC50 (A375 malignant melanoma; [8]): 116 nM
NC(=O)[C@H](Cc1c[nH]c2ccccc12)NC(=O)OCc1ccccc1	1100	96	
